Assay results: ChEMBL document CHEMBL3822387 (Bioorg Med Chem, 2016)
Active and inactive are the calls of the source. The calls are words filed in the database; no cut-off is given here.

target: Cholinesterase (Equus caballus, UniProt P81908); assay: not given; conditions: not given
Sequence (P81908 whole entry): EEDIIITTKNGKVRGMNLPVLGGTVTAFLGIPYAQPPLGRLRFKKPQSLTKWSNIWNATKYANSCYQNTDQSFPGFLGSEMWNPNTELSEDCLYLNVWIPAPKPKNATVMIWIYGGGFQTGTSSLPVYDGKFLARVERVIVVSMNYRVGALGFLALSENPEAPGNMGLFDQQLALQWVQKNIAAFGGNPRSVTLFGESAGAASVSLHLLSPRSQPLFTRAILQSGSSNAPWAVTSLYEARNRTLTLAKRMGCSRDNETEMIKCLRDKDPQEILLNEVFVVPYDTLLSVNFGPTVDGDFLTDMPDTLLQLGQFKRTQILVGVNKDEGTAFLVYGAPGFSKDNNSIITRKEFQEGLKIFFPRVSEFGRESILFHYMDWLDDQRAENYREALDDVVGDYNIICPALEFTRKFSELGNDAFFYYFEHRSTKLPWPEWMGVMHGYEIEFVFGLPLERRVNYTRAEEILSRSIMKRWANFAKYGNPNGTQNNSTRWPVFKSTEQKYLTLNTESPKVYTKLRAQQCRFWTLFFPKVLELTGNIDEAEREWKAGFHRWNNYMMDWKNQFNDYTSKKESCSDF

Row | SMILES | IC50 [µM]
1 | Cc1ccccc1CN1CCC(CC(=O)NCCc2c[nH]c3ccccc23)CC1 | 1.49
2 | O=C(CC1CCN(Cc2cccc(Cl)c2)CC1)NCCc1c[nH]c2ccccc12 | 0.95
3 | O=C(CC1CCN(Cc2ccccc2Cl)CC1)NCCc1c[nH]c2ccccc12 | 1.49
4 | Cc1ccccc1CN1CCC(C(=O)NCCc2c[nH]c3ccccc23)CC1 | 1.5
5 | COc1ccc2[nH]cc(CCNC(=O)CC3CCN(Cc4ccccc4Cl)CC3)c2c1 | 1.28
6 | O=C(CC1CCN(Cc2ccc(Cl)cc2)CC1)NCCc1c[nH]c2ccccc12 | 5.29
7 | O=C(CCc1c[nH]c2ccccc12)NC1CCN(Cc2ccccc2)CC1 | 0.37
8 | O=C(NCCc1c[nH]c2ccccc12)C1CCN(Cc2ccccc2[N+](=O)[O-])CC1 | 10.8
9 | COc1ccc2[nH]cc(CCNC(=O)C3CCN(Cc4ccccc4[N+](=O)[O-])CC3)c2c1 | 28.5

target: Acetylcholinesterase (Homo sapiens, UniProt P22303); assay: not given; conditions: not given
Sequence (P22303 whole entry): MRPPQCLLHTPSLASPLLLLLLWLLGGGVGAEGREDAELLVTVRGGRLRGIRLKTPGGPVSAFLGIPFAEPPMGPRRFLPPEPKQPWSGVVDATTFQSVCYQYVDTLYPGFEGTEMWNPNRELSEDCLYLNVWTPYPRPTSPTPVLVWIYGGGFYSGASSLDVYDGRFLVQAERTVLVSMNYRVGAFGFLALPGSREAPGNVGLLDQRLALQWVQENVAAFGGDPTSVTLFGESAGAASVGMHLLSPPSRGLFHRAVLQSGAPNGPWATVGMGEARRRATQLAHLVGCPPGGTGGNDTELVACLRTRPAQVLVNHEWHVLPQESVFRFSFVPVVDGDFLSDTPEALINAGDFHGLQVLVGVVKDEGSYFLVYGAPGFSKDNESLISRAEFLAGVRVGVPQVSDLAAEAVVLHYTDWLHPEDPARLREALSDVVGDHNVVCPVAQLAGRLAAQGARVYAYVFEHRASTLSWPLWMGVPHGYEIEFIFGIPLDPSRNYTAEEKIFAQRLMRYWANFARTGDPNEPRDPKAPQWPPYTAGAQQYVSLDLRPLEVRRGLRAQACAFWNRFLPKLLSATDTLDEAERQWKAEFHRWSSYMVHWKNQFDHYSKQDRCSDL

Row | SMILES | IC50 [µM]
10 | Cc1ccccc1CN1CCC(CC(=O)NCCc2c[nH]c3ccccc23)CC1 | 1.54
11 | Cc1ccccc1CN1CCC(C(=O)NCCc2c[nH]c3ccccc23)CC1 | 3.56
12 | O=C(CCc1c[nH]c2ccccc12)NC1CCN(Cc2ccccc2)CC1 | 8.32

test system: not listed separately; assay: Cytotoxicity against rat PC12 cells assessed as reduction in cell viability at 1 to 50 uM measured after 24 hrs by MTT assay; type: cell-based; conditions: pc-12, 24 h

Row | SMILES | Activity
13 | Cc1ccccc1CN1CCC(CC(=O)NCCc2c[nH]c3ccccc23)CC1 | Non-toxic
14 | Cc1ccccc1CN1CCC(C(=O)NCCc2c[nH]c3ccccc23)CC1 | Non-toxic
15 | O=C(CCc1c[nH]c2ccccc12)NC1CCN(Cc2ccccc2)CC1 | Non-toxic

test system: PC-12; assay: Neuroprotective activity against H2O2-induced damage in rat PC12 cells assessed as cell viability at 10 uM preincubated for 2 hrs followed by H2O2 addition for 24 hrs by MTT assay; type: functional, cell-based; conditions: not given

Row | SMILES | Activity
16 | Cc1c(C)c2c(c(C)c1O)CCC(C)(C(=O)O)O2 (centres undefined) | Active
17 | COc1ccc2[nH]cc(CCNC(C)=O)c2c1 | Active

test system: PC-12; assay: Neuroprotective activity against H2O2-induced damage in rat PC12 cells assessed as cell viability at 1 to 10 uM preincubated for 2 hrs followed by H2O2 addition for 24 hrs by MTT assay; type: functional, cell-based; conditions: not given

Row | SMILES | Activity
18 | Cc1ccccc1CN1CCC(CC(=O)NCCc2c[nH]c3ccccc23)CC1 | Active
19 | Cc1ccccc1CN1CCC(C(=O)NCCc2c[nH]c3ccccc23)CC1 | Active

target: Cholinesterase (Homo sapiens, UniProt P06276); assay: not given; conditions: not given
Sequence (P06276 whole entry): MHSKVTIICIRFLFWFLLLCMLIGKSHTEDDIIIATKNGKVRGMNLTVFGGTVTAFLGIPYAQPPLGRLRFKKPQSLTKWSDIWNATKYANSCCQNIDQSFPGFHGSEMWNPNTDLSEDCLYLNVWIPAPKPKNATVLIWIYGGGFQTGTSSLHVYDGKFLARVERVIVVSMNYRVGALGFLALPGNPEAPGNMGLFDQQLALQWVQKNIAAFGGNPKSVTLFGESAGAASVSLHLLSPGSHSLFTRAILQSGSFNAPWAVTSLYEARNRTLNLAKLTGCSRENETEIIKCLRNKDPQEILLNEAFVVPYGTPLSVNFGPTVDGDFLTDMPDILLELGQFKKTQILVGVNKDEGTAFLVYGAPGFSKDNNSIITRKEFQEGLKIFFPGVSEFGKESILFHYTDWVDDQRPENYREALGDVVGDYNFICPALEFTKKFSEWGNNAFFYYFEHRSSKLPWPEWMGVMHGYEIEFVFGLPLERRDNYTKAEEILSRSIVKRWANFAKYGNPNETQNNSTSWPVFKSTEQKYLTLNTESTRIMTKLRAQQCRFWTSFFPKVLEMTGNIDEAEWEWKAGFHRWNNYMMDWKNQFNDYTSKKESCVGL

Row | SMILES | IC50 [µM]
20 | Cc1ccccc1CN1CCC(CC(=O)NCCc2c[nH]c3ccccc23)CC1 | 1.42
21 | Cc1ccccc1CN1CCC(C(=O)NCCc2c[nH]c3ccccc23)CC1 | 0.4
22 | O=C(CCc1c[nH]c2ccccc12)NC1CCN(Cc2ccccc2)CC1 | 0.12

test system: not listed separately; assay: in vitro; conditions: PAMPA

Row | SMILES | Papp at 50 ug/ml [×10⁻⁶ cm/s]
23 | CC(=O)[C@H]1CC[C@H]2[C@@H]3CCC4=CC(=O)CC[C@]4(C)[C@H]3CC[C@]12C [PROGESTERONE] | 5.62
24 | Cc1ccccc1CN1CCC(CC(=O)NCCc2c[nH]c3ccccc23)CC1 | 6.91
25 | Cc1ccccc1CN1CCC(C(=O)NCCc2c[nH]c3ccccc23)CC1 | 8.9

target: Acetylcholinesterase (Electrophorus electricus, UniProt O42275); assay: not given; conditions: not given
Sequence (O42275 whole entry): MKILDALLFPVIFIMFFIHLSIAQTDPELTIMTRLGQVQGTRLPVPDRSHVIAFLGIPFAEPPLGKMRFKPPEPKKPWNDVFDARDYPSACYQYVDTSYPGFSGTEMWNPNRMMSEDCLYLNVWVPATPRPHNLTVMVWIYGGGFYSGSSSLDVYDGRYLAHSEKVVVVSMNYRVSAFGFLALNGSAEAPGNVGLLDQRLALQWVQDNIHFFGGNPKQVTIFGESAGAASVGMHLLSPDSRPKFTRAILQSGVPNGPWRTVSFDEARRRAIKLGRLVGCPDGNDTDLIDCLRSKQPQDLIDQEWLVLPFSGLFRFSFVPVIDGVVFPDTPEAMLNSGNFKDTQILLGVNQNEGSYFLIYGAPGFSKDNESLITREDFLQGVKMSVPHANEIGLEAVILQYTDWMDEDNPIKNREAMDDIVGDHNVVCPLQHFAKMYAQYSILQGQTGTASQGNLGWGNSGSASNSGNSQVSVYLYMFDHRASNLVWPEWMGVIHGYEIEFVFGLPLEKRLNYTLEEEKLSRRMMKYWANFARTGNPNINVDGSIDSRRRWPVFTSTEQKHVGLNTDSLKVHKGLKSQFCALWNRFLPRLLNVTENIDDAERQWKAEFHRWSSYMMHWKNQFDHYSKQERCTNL

Row | SMILES | IC50 [µM]
26 | Cc1ccccc1CN1CCC(CC(=O)NCCc2c[nH]c3ccccc23)CC1 | 0.94
27 | O=C(CC1CCN(Cc2cccc(Cl)c2)CC1)NCCc1c[nH]c2ccccc12 | 1.63
28 | O=C(CC1CCN(Cc2ccccc2Cl)CC1)NCCc1c[nH]c2ccccc12 | 28.2
29 | Cc1ccccc1CN1CCC(C(=O)NCCc2c[nH]c3ccccc23)CC1 | 2.25
30 | COc1ccc2[nH]cc(CCNC(=O)CC3CCN(Cc4ccccc4Cl)CC3)c2c1 | 16.8
31 | O=C(CC1CCN(Cc2ccc(Cl)cc2)CC1)NCCc1c[nH]c2ccccc12 | 22.4
32 | O=C(CCc1c[nH]c2ccccc12)NC1CCN(Cc2ccccc2)CC1 | 5.75
33 | O=C(NCCc1c[nH]c2ccccc12)C1CCN(Cc2ccccc2[N+](=O)[O-])CC1 | 31.5
34 | COc1ccc2[nH]cc(CCNC(=O)C3CCN(Cc4ccccc4[N+](=O)[O-])CC3)c2c1 | 54.2
